From patent US11312709B2, “Ghrelin O-acyltransferase inhibitors” (Glaxosmithkline Intellectual Property Development Limited, priority 2018, dated 2022)

What was measured:
human GOAT = human GOAT (Homo sapiens (Human), UniProt Q96T53); test: GOAT TR-FRET (HTRF) inhibition assay, 384-well; format: biochemical; settings: His-tag human GOAT membrane preparation from sf9 cells; read-out: hGOAT IC50
Protocol: Compounds contained herein were evaluated for their ability to inhibit the activity of GOAT. GOAT activity was assessed using a time-resolved fluorescence energy transfer (TR-FRET) assay in a 384-well format. His-tag human GOAT enzyme was in the form of a cell membrane preparation from sf9 cells infected with hGOAT-V5-His baculovirus. Varying concentrations of test compound with final DMSO concentration kept to 0.5% were added to membrane solution. Human GOAT membrane activity was established in a buffer having final concentration 0.25 mg/mL in 50 mM MOPS, pH7.5; 50 mM KCl; 0.1 mg/mL BSA; 50 μM CHAPS; and 2 mM EDTA. Substrate solution consisting of biotinylated ghrelin peptide (final concentration 100 nM), octanoyl coA (final concentration 2 μM) and palmitoyl CoA (final concentration 50 μM) was added to initiate the reaction. Plates were sealed, centrifuged for 1 minute at 2000 rpm, then incubated at 30° C. for 80 minutes with gentle shaking on an Eppendorf mix plate. Reaction termination and detection mix consisting of chicken anti-active ghrelin antibody (final concentration of 10 nM), Europium W1024-labeled streptavidin (final concentration of 4 nM), GOAT anti-chicken Dylight (final concentration of 12.5 nM), and GS[DAP-oc]-FL-amide inhibitor (final concentration of 1 μM) was added before further incubation for 40 minutes at 30° C. The plate was then read on an Envision in HTRF mode with excitation filter UV (TRF) 340 and first emission filter of APC 665 and a second emission filter of Europium 615. HTRF readings were acquired as per instrument defined LANCE-DELFIA protocol with a delay and window times of 50 μs for both; number of sequential windows: 1; time between flashes: 2000 μs between each of 100 flashes and 10 flashes for the second detector. The HTRF ratio was calculated directly by the instrument as the ratio of 665 window/615 window. Percent inhibition was calculated as 100−(100×(U−NC)/(PC−NC)) where U was the unknown value HTRF ratio (test compound value), NC was the negative control (100% inhibition value generated from a potent inhibitor), and PC was the positive control (100% activity generated from 0.5% DMSO vehicle). IC50 values were generated in GraphPad Prism (Version 4.03) using non-linear regression curve fit and sigmoidal dose response variable slope analysis.

acyl ghrelin [1] = test: Acyl ghrelin reduction in mice on a high fat, high carb diet; format: in vivo, male C57BL/6 mice; settings: HFHC diet; for reduction in acyl ghrelin levels compared to Rimonabant followed by vehicle: statistically significant
Protocol: Normal mice were acclimated to individual housing for two weeks on normal chow diet (20% calories from protein, 35% from carbohydrate, and 45% from fat). All mice except a control group were then switched to a high fat, high carb (HFHC) diet to cause obesity. Mice on the HFHC diet were administered 3 mg/kg Rimonabant once daily for seven days to cause weight loss except for one group that initiated 10 mg/kg Example 1a immediately. Mice that had been treated with Rimonabant were then administered various treatments in the evening for 21 days: vehicle, 3 mg/kg Rimonabant, or 10 mg/kg Example 1a. Mice were fasted overnight and administered a final treatment in the morning. Three hours later, blood was collected for plasma acyl ghrelin and des-acyl ghrelin determination.

acyl ghrelin [2] = test: Acyl ghrelin reduction in rats (fasting induced); format: in vivo, male SD rats; settings: 10 mg/kg, same design as mice
Protocol: (§1) Normal mice were administered various oral doses of Example 1a on a bid basis for two days (4 doses). Food was withdrawn the evening of the second day after the fourth dose, and then the animals were administered a final dose the morning of the third day. Three hours after this fifth and final dose, blood was collected for ghrelin and acyl ghrelin measurement by ELISA.
The same experimental design was conducted in rats administered 10 mg/kg of Example 1a.

acyl ghrelin [3] = test: Single-dose PK/PD study, acyl ghrelin reduction in cynomolgus monkeys; format: in vivo; settings: single oral dose 10 mg/kg, over the first 24 hours, fasted
Protocol: A single-dose PK/PD study was conducted in cynomolgus monkeys after a 10 mg/kg dose of Example 1a. On day zero, after an overnight fast, three monkeys were administered an oral dose of vehicle, and blood was collected pre-dose and 1, 3, 8, and 24 hours later. The 24 hour time point served as the pre-dose measurement for day 1 when, after an overnight fast, the monkeys were administered a single oral dose of 10 mg/kg Example 1a. Blood was collected at various time points (15 minutes, 30 minutes, 1 hour, 3 hours, 8 hours, 24 hours, 48 hours, 96 hours, and 168 hours) with overnight fasting throughout the study.

acyl ghrelin [4] = test: Acyl ghrelin reduction in mice (fasting induced); format: in vivo; settings: 5 doses; for acyl ghrelin reduction: 3 h after final dose, p<0.05
Protocol: as §1

[5] = continuous treatment with 10 mg/kg Example 1a
[6] = normal mice, various oral doses bid, blood 3 h after final dose, fasted, ELISA

human GOAT, sequence (Q96T53 whole entry): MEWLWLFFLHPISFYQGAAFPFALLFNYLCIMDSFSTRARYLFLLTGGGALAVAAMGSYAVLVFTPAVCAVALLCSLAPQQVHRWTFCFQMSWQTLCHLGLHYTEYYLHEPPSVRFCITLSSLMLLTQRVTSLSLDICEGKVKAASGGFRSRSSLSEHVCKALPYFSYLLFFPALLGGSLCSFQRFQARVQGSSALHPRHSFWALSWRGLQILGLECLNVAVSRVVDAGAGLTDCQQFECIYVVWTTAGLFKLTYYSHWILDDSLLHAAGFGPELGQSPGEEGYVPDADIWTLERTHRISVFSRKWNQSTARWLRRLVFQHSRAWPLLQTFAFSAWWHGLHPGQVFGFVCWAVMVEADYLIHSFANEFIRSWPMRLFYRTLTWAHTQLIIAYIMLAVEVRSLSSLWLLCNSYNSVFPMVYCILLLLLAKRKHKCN

Row | IC50 (human GOAT) [nM] | Structure (SMILES) | other results
1 | < 5000 | O=C(O)Cc1csc2c(F)c(O[C@H]3COc4nc(C(F)(F)F)ccc43)cc(Cl)c12 [Example 5a] | –
2 | – | Cc1c(C(=O)NN2CCCCC2)nn(-c2ccc(Cl)cc2Cl)c1-c1ccc(Cl)cc1 [Rimonabant, reference compound] | acyl ghrelin levels (so in the source); context is des-acyl ghrelin, FIG. 8) (acyl ghrelin [1]; 3 mg/kg Rimonabant treatment alone, not as much as with Example 1a): increased
3 | < 50 | NC(=O)c1ccc2c(n1)CC[C@H]2Oc1cc(Cl)c2c(CC(=O)O)csc2c1 [Example 9b] | –
4 | < 50 | Cc1ccc2c(n1)CC[C@@H]2Oc1cc(Cl)c2c(CC(=O)O)csc2c1 [Example 2a, (S)-2-(4-chloro-6-((2-methyl-6,7-dihydro-5H-cyclopenta[b]pyridin-5-yl)oxy)benzo[b]thiophen-3-yl)acetic acid] | –
5 | < 50 | O=C(O)Cc1csc2c(Cl)c(O[C@@H]3COc4ncccc43)cc(Cl)c12 [Example 7b] | –
6 | < 50 | O=C(O)Cc1csc2c(F)c(O[C@@H]3COc4nc(C(F)(F)F)ccc43)cc(Cl)c12 [Example 5b] | –
7 | < 50 | O=C(O)Cc1csc2cc(O[C@@H]3COc4ncccc43)cc(Cl)c12 [Example 6b] | –
8 | < 5000 | Cc1ccc2c(n1)CC[C@H]2Oc1cc(Cl)c2c(CC(=O)O)csc2c1 [Example 2b, (R)-2-(4-chloro-6-((2-methyl-6,7-dihydro-5H-cyclopenta[b]pyridin-5-yl)oxy)benzo[b]thiophen-3-yl)acetic acid] | –
9 | < 50 | O=C(O)Cc1csc2c(Cl)c(O[C@@H]3CCc4nc(Cl)ccc43)cc(Cl)c12 [Example 3b] | –
10 | < 5000 | O=C(O)Cc1csc2c(Cl)c(O[C@H]3COc4ncccc43)cc(Cl)c12 [Example 7a] | –
11 | < 500 | O=C(O)Cc1csc2c(Cl)c(O[C@H]3CCc4nc(Cl)ccc43)cc(Cl)c12 [Example 3a] | –
12 | < 500 | NC(=O)c1ccc2c(n1)CC[C@@H]2Oc1cc(Cl)c2c(CC(=O)O)csc2c1 [Example 9a] | –
13 | < 500 | O=C(O)Cc1csc2c(Cl)c(O[C@H]3CCc4nc(C(F)(F)F)ccc43)cc(Cl)c12 [Example 4a] | –
14 | < 50 | O=C(O)Cc1csc2c(Cl)c(O[C@@H]3CCc4nc(C(F)(F)F)ccc43)cc(Cl)c12 [Example 4b] | –
15 | < 5000 | O=C(O)Cc1csc2cc(O[C@@H]3CCc4ncccc43)cc(Cl)c12 [Example 1b, (R)-2-(4-chloro-6-((6,7-dihydro-5H-cyclopenta[b]pyridin-5-yl)oxy)benzo[b]thiophen-3-yl)acetic acid] | –
16 | < 50 | N#Cc1ccc2c(n1)CCC2Oc1cc(Cl)c2c(CC(=O)O)csc2c1 (racemic) [Example 8, 2-(4-chloro-6-((2-cyano-6,7-dihydro-5H-cyclopenta[b]pyridin-5-yl)oxy)benzo[b]thiophen-3-yl)acetic Acid] | –
17 | < 50 | O=C(O)Cc1csc2cc(O[C@H]3CCc4ncccc43)cc(Cl)c12 [Example 1a, (S)-2-(4-chloro-6-((6,7-dihydro-5H-cyclopenta[b]pyridin-5-yl)oxy)benzo[b]thiophen-3-yl)acetic Acid] | reduction in acyl ghrelin levels compared to Rimonabant followed by vehicle (acyl ghrelin [1]; 10 mg/kg Example 1a for 21 days after 7 days of 3 mg/kg Rimonabant): 61%; des-acyl ghrelin levels relative to Rimonabant followed by vehicle treatment (acyl ghrelin [1]; both Example 1a treatments (10 mg/kg)): statistically significantly elevated; reduction in acyl ghrelin compared to vehicle treatment alone (acyl ghrelin [1]; [5]): 28%; reduction in acyl ghrelin levels compared to Rimonabant followed by vehicle (acyl ghrelin [1]; [5]): 57%; acyl ghrelin levels (acyl ghrelin [2]): significantly reduced; des-acyl ghrelin levels (acyl ghrelin [2]): increased; reduction in the acyl ghrelin AUC relative to vehicle treatment (acyl ghrelin [3]): 51%; acyl ghrelin reduction (acyl ghrelin [4]; 1 mg/kg oral bid): statistically significant; acyl ghrelin reduction (acyl ghrelin [4]; 10 mg/kg oral bid): statistically significant; acyl ghrelin (dose response) (acyl ghrelin [4]; [6]): Dose-dependent decreases; des-acyl ghrelin (dose response) (acyl ghrelin [4]; [6]): increases
18 | < 50 | O=C(O)Cc1csc2cc(O[C@H]3COc4ncccc43)cc(Cl)c12 [Example 6a] | –
